{"source": "patent US10765114B2", "about": "“4-amino-6-(pyridyl and 2-substitutedphenyl)-picolinates and 6-amino-2-(pyridyl and 2-substitutedphenyl)-pyrimidine-4-carboxylates and their use as herbicides” (Dow AgroSciences LLC, priority 2013, dated 2020)", "key": {"[1]": {"tested_on": "Key Broadleaf Weed and Crop Species", "assay": "Post-Emergent Test II (Table 5)", "type": "in vivo", "conditions": "post-emergence, 336 h; for pest or weed control at 70 g/ha: application rate 70 (kg ai/ha; footnote: g ai/ha); for pest or weed control at 140 g/ha: application rate 140 (kg ai/ha; footnote: g ai/ha)", "procedure,_shortened": "(§1)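 Visual injury ratings (0 = no injury, 100 = complete kill) taken 14 days after treatment, relative to untreated controls. Compounds, in an acetone/DMSO aqueous carrier with crop oil and surfactant, were applied by track sprayer at 187 L/ha, in a twofold dilution series from the top rate, to plants at the first to second true-leaf stage.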"}, "[2]": {"tested_on": "Key Grass and Sedge Weeds as well as Grass Crops", "assay": "Post-Emergent Test II (Table 6)", "type": "in vivo", "conditions": "post-emergence, 336 h, 14 days after application; for pest or weed control at 70 g/ha: 70 g ai/ha; for pest or weed control at 140 g/ha: 140 g ai/ha", "procedure,_shortened": "as §1"}, "[3]": {"conditions": "Euphorbia heterophylla, EPHHL: wild poinsettia (Euphorbia heterophylla), read-out: Visual Growth Reduction (%) 14 Days After Application EPHHL"}, "[4]": {"conditions": "Viola tricolor, VIOTR: wild pansy (Viola tricolor), read-out: Visual Growth Reduction (%) 14 Days After Application VIOTR"}, "[5]": {"conditions": "CYPSS, read-out: Visual Growth Reduction (%) 14 Days After Application CYPSS"}, "[6]": {"conditions": "DIGSA: crabgrass (Digitaria sanguinalis), read-out: Visual Growth Reduction (%) 14 Days After Application DIGSA"}, "[7]": {"conditions": "ECHSS, read-out: Visual Growth Reduction (%) 14 Days After Application ECHSS"}, "[8]": {"conditions": "ORYSS (crop), read-out: Visual Growth Reduction (%) 14 Days After Application ORYSS"}, "[9]": {"conditions": "SETFA: giant foxtail (Setaria faberi), read-out: Visual Growth Reduction (%) 14 Days After Application SETFA"}, "[10]": {"conditions": "SORVU: grain sorghum (Sorghum vulgare), read-out: Visual Growth Reduction (%) 14 Days After Application SORVU"}, "[11]": {"conditions": "TRZSS (crop), read-out: Visual Growth Reduction (%) 14 Days After Application TRZSS"}, "[12]": {"conditions": "ZEAMX: maize, corn (Zea mays), read-out: Visual Growth Reduction (%) 14 Days After Application ZEAMX"}}, "note": "Read-outs that look alike come from different tables or passages of the source.", "data": [{"smiles": "COC(=O)c1nc(-c2ccc(C(F)(F)F)nc2)nc(N)c1Cl", "note": "[Compound 82, methyl 6-amino-5-chloro-2-(6-(trifluoromethyl)pyridin-3-yl)pyrimidine-4-carboxylate]", "values": [{"measurement": "melting point", "result": "179 to 181", "unit": "°C"}, {"measurement": "pest or weed control at 70 g/ha", "setting": "[1]; [3]", "result": "0 to 29", "unit": "%"}, {"measurement": "pest or weed control at 140 g/ha", "setting": "[1]; [3]", "result": "0 to 29", "unit": "%"}, {"measurement": "pest or weed control at 70 g/ha", "setting": "[1]; [4]", "result": "0 to 29", "unit": "%"}, {"measurement": "pest or weed control at 140 g/ha", "setting": "[1]; [4]", "result": "0 to 29", "unit": "%"}, {"measurement": "pest or weed control at 70 g/ha", "setting": "[2]; [5]", "result": "0 to 29", "unit": "%"}, {"measurement": "pest or weed control at 140 g/ha", "setting": "[2]; [5]", "result": "0 to 29", "unit": "%"}, {"measurement": "pest or weed control at 70 g/ha", "setting": "[2]; [6]", "result": "0 to 29", "unit": "%"}, {"measurement": "pest or weed control at 140 g/ha", "setting": "[2]; [6]", "result": "0 to 29", "unit": "%"}, {"measurement": "pest or weed control at 70 g/ha", "setting": "[2]; [7]", "result": "0 to 29", "unit": "%"}, {"measurement": "pest or weed control at 140 g/ha", "setting": "[2]; [7]", "result": "0 to 29", "unit": "%"}, {"measurement": "pest or weed control at 70 g/ha", "setting": "[2]; [8]", "result": "0 to 29", "unit": "%"}, {"measurement": "pest or weed control at 140 g/ha", "setting": "[2]; [8]", "result": "0 to 29", "unit": "%"}, {"measurement": "pest or weed control at 70 g/ha", "setting": "[2]; [9]", "result": "0 to 29", "unit": "%"}, {"measurement": "pest or weed control at 140 g/ha", "setting": "[2]; [9]", "result": "0 to 29", "unit": "%"}, {"measurement": "pest or weed control at 70 g/ha", "setting": "[2]; [10]", "result": "0 to 29", "unit": "%"}, {"measurement": "pest or weed control at 140 g/ha", "setting": "[2]; [10]", "result": "0 to 29", "unit": "%"}, {"measurement": "pest or weed control at 70 g/ha", "setting": "[2]; [11]", "result": "0 to 29", "unit": "%"}, {"measurement": "pest or weed control at 140 g/ha", "setting": "[2]; [11]", "result": "0 to 29", "unit": "%"}, {"measurement": "pest or weed control at 70 g/ha", "setting": "[2]; [12]", "result": "0 to 29", "unit": "%"}, {"measurement": "pest or weed control at 140 g/ha", "setting": "[2]; [12]", "result": "0 to 29", "unit": "%"}]}]}
